Test results taken from ChEMBL document CHEMBL5154644, “Design, Synthesis, and Structure-Activity Relationship Optimization of Pyrazolopyrimidine Amide Inhibitors of Phosphoinositide 3-Kinase γ (PI3Kγ)” (J Med Chem, 2022).

Columns and labels:
Homo sapiens [1] = species on record: Homo sapiens; assay: Selectivity ratio of IC50 for inhibition of PI3Kdelta (unknown origin) to IC50 for inhibition of PI3Kgamma (unknown origin)
Homo sapiens [2] = species on record: Homo sapiens; assay: Selectivity ratio of IC50 for inhibition of PI3Kalpha (unknown origin) to IC50 for inhibition of PI3Kgamma (unknown origin)
[3] = target: T1, Phosphatidylinositol 4,5-bisphosphate 3-kinase catalytic subunit gamma isoform (Homo sapiens, UniProt P48736); assay: Inhibition of PI3Kgamma (unknown origin) in […] stimulated human THP-1 cells assessed as reduction in Akt phosphorylation level at Ser473 residue preincubated for 60 mins followed by rhMCP-1 stimulation and measured after 2 mins by AlphaLisa assay; assay type: cell-based
[4] = target: T2, Phosphatidylinositol 4,5-bisphosphate 3-kinase catalytic subunit delta isoform (Homo sapiens, UniProt O00329); assay: Inhibition of PI3Kdelta (unknown origin) using PIP2 as substrate preincubated for 1 hr followed by substrate addition and measured after 60 mins in presence of ATP by ADP-glo assay
T2 sequence (O00329 whole entry): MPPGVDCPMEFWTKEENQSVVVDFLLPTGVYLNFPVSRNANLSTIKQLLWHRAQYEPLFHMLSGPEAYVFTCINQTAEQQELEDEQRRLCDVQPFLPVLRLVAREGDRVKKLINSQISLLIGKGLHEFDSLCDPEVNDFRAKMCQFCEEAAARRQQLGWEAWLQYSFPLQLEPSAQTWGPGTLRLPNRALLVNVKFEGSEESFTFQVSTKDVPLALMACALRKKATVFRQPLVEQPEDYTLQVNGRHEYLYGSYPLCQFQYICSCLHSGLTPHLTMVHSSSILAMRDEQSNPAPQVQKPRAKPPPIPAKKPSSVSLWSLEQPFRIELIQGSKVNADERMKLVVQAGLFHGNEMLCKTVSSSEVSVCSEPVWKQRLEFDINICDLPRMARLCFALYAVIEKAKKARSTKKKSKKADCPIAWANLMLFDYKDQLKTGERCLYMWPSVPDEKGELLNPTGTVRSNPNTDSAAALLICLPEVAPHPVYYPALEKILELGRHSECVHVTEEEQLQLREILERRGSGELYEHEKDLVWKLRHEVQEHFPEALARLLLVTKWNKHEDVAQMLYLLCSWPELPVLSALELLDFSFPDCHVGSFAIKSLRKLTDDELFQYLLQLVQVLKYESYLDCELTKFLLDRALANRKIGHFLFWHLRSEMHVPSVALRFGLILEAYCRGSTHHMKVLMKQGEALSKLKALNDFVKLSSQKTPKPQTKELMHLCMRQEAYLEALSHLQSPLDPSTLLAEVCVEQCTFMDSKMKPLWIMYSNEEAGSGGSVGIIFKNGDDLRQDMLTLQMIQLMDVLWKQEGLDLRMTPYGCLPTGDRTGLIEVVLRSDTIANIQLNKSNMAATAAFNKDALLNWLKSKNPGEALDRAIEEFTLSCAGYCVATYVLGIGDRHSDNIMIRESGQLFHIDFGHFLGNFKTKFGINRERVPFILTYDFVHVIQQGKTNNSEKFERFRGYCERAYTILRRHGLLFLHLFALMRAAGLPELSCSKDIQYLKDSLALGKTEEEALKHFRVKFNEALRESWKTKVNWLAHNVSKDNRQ

[5] = target: T1, Phosphatidylinositol 4,5-bisphosphate 3-kinase catalytic subunit gamma isoform; assay: Inhibition of PI3Kgamma (unknown origin) using PIP2 as substrate preincubated for 1 hr followed by substrate addition and measured after 60 mins in presence of ATP by ADP-glo assay
[6] = target: Phosphatidylinositol 4,5-bisphosphate 3-kinase catalytic subunit alpha isoform (Homo sapiens, UniProt P42336); assay: Inhibition of PI3Kalpha (unknown origin) using PIP2 as substrate preincubated for 1 hr followed by substrate addition and measured after 60 mins in presence of ATP by ADP-glo assay
[7] = Metabolic stability in human hepatocytes assessed as intrinsic clearance per 10^6 cells at 0.5 uM by LC-MS/MS analysis; assay type: ADME, cell-based, Hepatocyte; settings: read-out: CLH
[8] = Metabolic stability in rat hepatocyte assessed as intrinsic clearance per 10^8 cells at 0.5 uM by LC-MS/MS analysis; assay type: ADME, cell-based; settings: hepatocytes
CYP3A4 = CYP3A4 (Homo sapiens, UniProt P08684); assay: in vitro; settings: human liver microsomes, probe midazolam
CYP3A4, sequence (P08684 whole entry): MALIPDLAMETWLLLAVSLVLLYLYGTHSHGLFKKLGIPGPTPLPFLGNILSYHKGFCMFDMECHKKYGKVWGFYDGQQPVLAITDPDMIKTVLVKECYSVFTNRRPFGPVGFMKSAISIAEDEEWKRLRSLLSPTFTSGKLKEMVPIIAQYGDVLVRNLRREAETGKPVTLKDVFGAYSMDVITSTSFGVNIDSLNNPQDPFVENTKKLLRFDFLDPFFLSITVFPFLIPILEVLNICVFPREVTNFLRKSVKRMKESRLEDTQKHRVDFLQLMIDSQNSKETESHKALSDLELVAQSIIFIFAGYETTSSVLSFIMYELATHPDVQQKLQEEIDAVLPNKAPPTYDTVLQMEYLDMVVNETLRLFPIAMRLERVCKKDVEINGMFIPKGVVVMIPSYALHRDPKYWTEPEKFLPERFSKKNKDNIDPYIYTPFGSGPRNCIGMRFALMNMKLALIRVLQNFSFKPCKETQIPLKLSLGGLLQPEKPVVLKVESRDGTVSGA
Description: Time dependent inhibition of CYP3A4 in human liver microsomes at 10 uM using midazolam as substrate preincubated for 30 mins in presence of NADPH by LC/MS/MS analysis relative to control

Phosphatidylinositol 4,5-bisphosphate 3-kinase catalytic subunit alpha isoform, sequence (P42336 whole entry, canonical isoform): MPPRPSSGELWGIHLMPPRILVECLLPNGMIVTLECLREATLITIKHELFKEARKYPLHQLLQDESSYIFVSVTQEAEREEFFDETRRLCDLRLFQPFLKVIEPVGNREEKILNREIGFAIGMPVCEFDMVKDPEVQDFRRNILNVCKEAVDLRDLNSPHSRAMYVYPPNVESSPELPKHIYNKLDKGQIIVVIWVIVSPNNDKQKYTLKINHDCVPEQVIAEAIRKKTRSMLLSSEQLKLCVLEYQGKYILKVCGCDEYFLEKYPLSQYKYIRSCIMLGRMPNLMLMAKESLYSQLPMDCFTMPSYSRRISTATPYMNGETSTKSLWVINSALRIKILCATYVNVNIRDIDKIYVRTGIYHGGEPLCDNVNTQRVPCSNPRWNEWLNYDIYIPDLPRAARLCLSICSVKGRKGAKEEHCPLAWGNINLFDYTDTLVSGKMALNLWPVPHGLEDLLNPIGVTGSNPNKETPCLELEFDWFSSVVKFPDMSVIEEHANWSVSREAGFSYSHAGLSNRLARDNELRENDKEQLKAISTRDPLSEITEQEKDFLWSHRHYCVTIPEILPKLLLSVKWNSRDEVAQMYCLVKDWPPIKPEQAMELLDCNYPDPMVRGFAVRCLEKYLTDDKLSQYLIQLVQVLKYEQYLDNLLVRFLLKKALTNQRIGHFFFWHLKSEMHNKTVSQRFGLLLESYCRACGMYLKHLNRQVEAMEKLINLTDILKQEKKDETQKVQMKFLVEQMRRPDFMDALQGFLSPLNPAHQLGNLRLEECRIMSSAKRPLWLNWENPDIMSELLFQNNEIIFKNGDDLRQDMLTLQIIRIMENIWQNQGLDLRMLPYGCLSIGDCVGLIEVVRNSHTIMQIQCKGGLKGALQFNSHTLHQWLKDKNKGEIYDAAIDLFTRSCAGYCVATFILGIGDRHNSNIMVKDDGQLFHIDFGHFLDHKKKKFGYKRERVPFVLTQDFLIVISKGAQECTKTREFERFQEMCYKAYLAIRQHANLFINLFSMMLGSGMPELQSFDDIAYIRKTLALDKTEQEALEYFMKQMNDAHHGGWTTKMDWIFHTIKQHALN
T1 sequence (P48736 whole entry, canonical isoform): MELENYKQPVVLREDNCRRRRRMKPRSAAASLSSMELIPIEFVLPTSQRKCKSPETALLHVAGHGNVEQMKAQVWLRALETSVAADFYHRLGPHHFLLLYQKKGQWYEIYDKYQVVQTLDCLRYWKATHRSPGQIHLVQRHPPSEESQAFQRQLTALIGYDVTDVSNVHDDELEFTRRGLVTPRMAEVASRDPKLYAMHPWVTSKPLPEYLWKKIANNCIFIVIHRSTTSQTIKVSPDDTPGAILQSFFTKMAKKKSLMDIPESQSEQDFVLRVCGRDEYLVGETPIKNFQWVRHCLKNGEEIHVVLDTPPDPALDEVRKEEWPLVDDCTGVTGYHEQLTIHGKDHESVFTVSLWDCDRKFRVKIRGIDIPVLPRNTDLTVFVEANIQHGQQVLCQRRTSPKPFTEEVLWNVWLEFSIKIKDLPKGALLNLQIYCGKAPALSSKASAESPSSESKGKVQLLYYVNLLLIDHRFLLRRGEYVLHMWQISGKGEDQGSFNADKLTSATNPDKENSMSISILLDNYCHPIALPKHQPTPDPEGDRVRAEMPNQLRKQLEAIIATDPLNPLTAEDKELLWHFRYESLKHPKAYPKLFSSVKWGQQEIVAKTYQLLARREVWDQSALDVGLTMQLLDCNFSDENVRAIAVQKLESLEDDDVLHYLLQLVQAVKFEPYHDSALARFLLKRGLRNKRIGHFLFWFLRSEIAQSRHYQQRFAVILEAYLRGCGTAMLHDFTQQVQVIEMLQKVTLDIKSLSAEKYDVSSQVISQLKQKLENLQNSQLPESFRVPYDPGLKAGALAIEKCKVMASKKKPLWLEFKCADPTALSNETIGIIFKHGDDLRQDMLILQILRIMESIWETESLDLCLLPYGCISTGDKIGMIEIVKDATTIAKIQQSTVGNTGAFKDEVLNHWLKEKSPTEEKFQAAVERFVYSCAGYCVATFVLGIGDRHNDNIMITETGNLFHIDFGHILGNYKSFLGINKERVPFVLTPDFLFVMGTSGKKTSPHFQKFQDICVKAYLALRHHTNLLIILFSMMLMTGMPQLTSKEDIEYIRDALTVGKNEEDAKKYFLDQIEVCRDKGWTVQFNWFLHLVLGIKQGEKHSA

SMILES | Ratio IC50 (Homo sapiens [1]) | Ratio IC50 (Homo sapiens [2]) | IC50 [3] | IC50 [4] | IC50 [5] | IC50 [6] | hepatocyte CLint at 0.5 µM [7] | hepatocyte intrinsic clearance [8] | inhibition at 30 min, 10 µM (CYP3A4)
Cc1cc(-c2ccn3nc(N)c(C(=O)N[C@H]4CC[C@H](C(=O)O)CC4)c3n2)cc2c1C(=O)N([C@@H](C)C1CC1)C2 | 9 | 13 | 397 nM | 20 nM | 2.1 nM | 29 nM | – | – | –
Cc1cc(-c2ccn3nc(N)c(C(=O)N[C@H]4CC[C@H](N)CC4)c3n2)cc2c1C(=O)N([C@@H](C)C1CC1)C2 | 2250 | > 4960 | 276 nM | 4530 nM | 2 nM | > 10000 nM | 4.74 µL/min/1e6 cells | 19.3 µL/min | –
CNS(=O)(=O)c1cc(-c2ccn3nc(N)c(C(=O)N[C@@H](CO)C4CC4)c3n2)cc2c1C(=O)N([C@@H](C)C(F)(F)F)C2 | 65 | 274 | 96 nM | 86 nM | 1.3 nM | 363 nM | 1.61 µL/min/1e6 cells | 3.82 µL/min | –
C[C@@H](C1CC1)N1Cc2cc(-c3ccn4nc(N)c(C(=O)NC5CC5)c4n3)cc(C3CC3)c2C1=O | 178 | 122 | 66 nM | 829 nM | 4.7 nM | 572 nM | 4.23 µL/min/1e6 cells | 2.97 µL/min | 38%
CC[C@H](N1Cc2cc(-c3ccn4nc(N)c(C(=O)NC5CC5)c4n3)cc(NS(C)(=O)=O)c2C1=O)C(F)(F)F | 403 | – | 31 nM | 1310 nM | 3.3 nM | 2830 nM | 2.91 µL/min/1e6 cells | 6.67 µL/min | 62%
CC(C)c1cc(-c2ccn3nc(N)c(C(=O)NC4CC4)c3n2)cc2c1C(=O)N([C@@H](C)C1CC1)C2 | 322 | 220 | 54 nM | 1480 nM | 4.6 nM | 1010 nM | < 1.2 µL/min/1e6 cells | 2.41 µL/min | 28%
Cc1cc(-c2ccn3nc(N)c(C(=O)NC4CC4)c3n2)cc2c1C(=O)N([C@@H](C1CC1)C(F)(F)F)C2 | > 566 | > 566 | 795 nM | > 10000 nM | 17.7 nM | > 10000 nM | – | – | –
Cc1cc(-c2ccn3nc(N)c(C(=O)NC4CC4)c3n2)cc2c1C(=O)N(CC1CC1)C2 | 84 | 42 | 258 nM | 911 nM | 10.1 nM | 431 nM | – | – | –
C[C@H](N1Cc2cc(-c3ccn4nc(N)c(C(=O)NC5CC5)c4n3)cc(NS(C)(=O)=O)c2C1=O)C(F)(F)F | 89 | – | 16 nM | 68 nM | 0.8 nM | 97 nM | < 1.2 µL/min/1e6 cells | < 1.2 µL/min | 14%
C[C@@H](C1CC1)N1Cc2cc(-c3ccn4nc(N)c(C(=O)NC5CC5)c4n3)cc(S(=O)(=O)C3CCC3)c2C1=O | 124 | – | 50 nM | 376 nM | 3 nM | 512 nM | 4.89 µL/min/1e6 cells | 4.14 µL/min | 35%
CCN1Cc2cc(-c3ccn4nc(N)c(C(=O)NC5CC5)c4n3)cc(C)c2C1=O | 32 | 21 | 338 nM | 179 nM | 5.6 nM | 118 nM | – | – | –
CS(=O)(=O)Nc1cc(-c2ccn3nc(N)c(C(=O)NC4CC4)c3n2)cc2c1C(=O)N([C@@H](C1CC1)C(F)(F)F)C2 | 2780 | – | 88 nM | 4580 nM | 1.7 nM | 5360 nM | < 1.2 µL/min/1e6 cells | < 1.2 µL/min | 22%
CC(C)[C@H](N1Cc2cc(-c3ccn4nc(N)c(C(=O)NC5CC5)c4n3)cc(NS(C)(=O)=O)c2C1=O)C(F)(F)F | 323 | – | 150 nM | 2750 nM | 8.5 nM | 3680 nM | 6.52 µL/min/1e6 cells | 3.65 µL/min | 55%
C[C@@H](C1CC1)N1Cc2cc(-c3ccn4nc(N)c(C(=O)NC5CC5)c4n3)cc(Cl)c2C1=O | 589 | 282 | 103 nM | 1430 nM | 2.4 nM | 686 nM | < 1.2 µL/min/1e6 cells | 2.89 µL/min | 36%
C[C@@H](C1CC1)N1Cc2cc(-c3ccn4nc(N)c(C(=O)NC5CC5)c4n3)cc(OC(F)F)c2C1=O | 907 | 330 | 71 nM | 2120 nM | 1.8 nM | 602 nM | 40.4 µL/min/1e6 cells | 12.6 µL/min | 16%
CNS(=O)(=O)c1cc(-c2ccn3nc(N)c(C(=O)N[C@H]4CC[C@](C)(O)CC4)c3n2)cc2c1C(=O)N([C@@H](C)C(F)(F)F)C2 | 22 | 53 | 32 nM | 20 nM | 0.9 nM | 49 nM | 2.77 µL/min/1e6 cells | < 1.2 µL/min | –
Cc1cc(-c2ccn3ncc(-c4cnn(C)c4)c3n2)cc2c1C(=O)N([C@@H](C)C1CC1)C2 | – | – | 468 nM | – | – | – | 27.2 µL/min/1e6 cells | 10.3 µL/min | 67%
